Results on 12 molecules are retold here after ChEMBL document CHEMBL4808191, “Design, synthesis and biological evaluation of novel deoxyvasicinone-indole as multi-target agents for Alzheimer's disease” (Bioorg Med Chem Lett, 2021).

pIC50: −log10 of the molar value. Active and inactive are the calls of the source. No cut-off for these calls is given here.

The term pIC50 denotes −log10 of the IC50, conventionally taken in molar units. A low value points to a large IC50. As a reminder, the inhibition is the drop in the measured response relative to a control, in per cent.

One data set addresses Cholinesterase (Equus caballus, UniProt P81908).
Another data set addresses Acetylcholinesterase (Electrophorus electricus, UniProt O42275). The experiment in a line: Inhibition of electric eel AChE by Ellman's method. Background: In Ellman's method for cholinesterases, released thiocholine reacts with DTNB.
Data set [1] addresses Amyloid-beta precursor protein (Homo sapiens, UniProt P05067).
Data set [2] has as its target Acetylcholinesterase (Homo sapiens) (UniProt P22303). The data set is described as follows: Inhibition of AChE (unknown origin)-induced amyloid beta(1 to 42) aggregation by thioflavin-T fluorescence assay. Conditions: concentration not given here.
For data set [3] the target is unchanged. The data set is described as follows: Mixed type inhibition of AChE (unknown origin) assessed as increase in Km by Lineweaver-Burk plot analysis.
Another data set has as its system BV-2. The experiment in a line: Cytotoxicity against mouse BV-2 cells assessed as effect on cell viability at <12.5 uM by CCK8 assay. The class given is cell-based. (Tetrazolium assays rely on reduction of a dye to a coloured formazan, in cell work by metabolically active cells.)
Another data set has as its system PC-12. The data set is described as follows: Cytotoxicity against rat PC12 cells assessed as effect on cell viability at <12.5 uM by CCK8 assay. The class given is cell-based.
The target of data set [4] is Acetylcholinesterase (Homo sapiens) (UniProt P22303). The data set is described as follows: Mixed type inhibition of AChE (unknown origin) assessed as decrease in Vmax by Lineweaver-Burk plot analysis.
Acetylcholinesterase (Homo sapiens), sequence (P22303 whole entry): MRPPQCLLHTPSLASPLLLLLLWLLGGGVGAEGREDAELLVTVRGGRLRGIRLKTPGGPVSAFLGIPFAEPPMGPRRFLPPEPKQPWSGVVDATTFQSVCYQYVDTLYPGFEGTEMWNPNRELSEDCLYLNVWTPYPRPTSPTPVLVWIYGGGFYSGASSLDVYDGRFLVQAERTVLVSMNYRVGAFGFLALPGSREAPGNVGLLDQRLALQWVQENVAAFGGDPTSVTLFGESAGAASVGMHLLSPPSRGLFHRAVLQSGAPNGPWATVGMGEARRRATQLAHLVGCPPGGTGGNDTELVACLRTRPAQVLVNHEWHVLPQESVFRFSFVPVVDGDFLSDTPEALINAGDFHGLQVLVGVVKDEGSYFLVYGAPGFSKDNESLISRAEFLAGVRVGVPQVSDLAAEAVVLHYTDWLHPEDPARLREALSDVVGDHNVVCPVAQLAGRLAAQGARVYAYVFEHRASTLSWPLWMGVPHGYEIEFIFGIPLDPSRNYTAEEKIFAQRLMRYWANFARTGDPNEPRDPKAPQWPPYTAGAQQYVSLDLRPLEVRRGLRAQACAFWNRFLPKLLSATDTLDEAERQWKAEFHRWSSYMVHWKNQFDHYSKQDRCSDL

Acetylcholinesterase, sequence (O42275 whole entry): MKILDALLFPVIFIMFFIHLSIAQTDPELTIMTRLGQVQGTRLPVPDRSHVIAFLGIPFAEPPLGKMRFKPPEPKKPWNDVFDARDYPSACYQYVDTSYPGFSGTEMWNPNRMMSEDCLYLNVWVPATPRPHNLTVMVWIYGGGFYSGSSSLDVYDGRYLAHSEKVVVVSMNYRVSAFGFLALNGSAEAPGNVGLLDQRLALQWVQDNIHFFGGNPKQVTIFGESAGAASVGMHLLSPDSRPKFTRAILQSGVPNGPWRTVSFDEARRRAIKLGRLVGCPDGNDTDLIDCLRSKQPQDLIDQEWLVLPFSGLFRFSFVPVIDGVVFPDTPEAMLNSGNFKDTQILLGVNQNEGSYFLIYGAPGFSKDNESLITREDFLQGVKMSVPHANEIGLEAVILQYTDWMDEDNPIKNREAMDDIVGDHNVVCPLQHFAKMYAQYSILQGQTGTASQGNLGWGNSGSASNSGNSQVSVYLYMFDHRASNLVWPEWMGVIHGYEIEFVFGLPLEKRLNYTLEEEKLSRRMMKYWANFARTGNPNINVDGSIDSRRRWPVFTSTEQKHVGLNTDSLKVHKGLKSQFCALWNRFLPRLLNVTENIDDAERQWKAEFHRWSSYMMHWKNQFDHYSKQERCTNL
Cholinesterase, sequence (P81908 whole entry): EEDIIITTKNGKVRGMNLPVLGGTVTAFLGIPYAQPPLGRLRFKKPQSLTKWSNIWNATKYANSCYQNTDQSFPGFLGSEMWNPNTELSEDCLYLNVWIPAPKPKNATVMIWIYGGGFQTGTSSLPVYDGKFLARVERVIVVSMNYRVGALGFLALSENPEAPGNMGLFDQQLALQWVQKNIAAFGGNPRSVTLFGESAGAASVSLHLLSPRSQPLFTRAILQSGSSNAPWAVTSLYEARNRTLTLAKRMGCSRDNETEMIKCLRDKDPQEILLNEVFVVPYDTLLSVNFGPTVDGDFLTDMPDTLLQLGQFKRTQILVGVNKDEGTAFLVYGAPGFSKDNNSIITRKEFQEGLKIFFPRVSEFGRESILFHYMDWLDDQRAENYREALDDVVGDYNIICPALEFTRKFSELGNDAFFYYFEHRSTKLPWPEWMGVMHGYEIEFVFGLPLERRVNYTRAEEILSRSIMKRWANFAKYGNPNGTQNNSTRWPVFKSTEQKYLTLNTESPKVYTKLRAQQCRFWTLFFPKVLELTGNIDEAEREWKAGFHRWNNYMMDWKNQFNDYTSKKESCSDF
Amyloid-beta precursor protein, sequence (P05067 whole entry): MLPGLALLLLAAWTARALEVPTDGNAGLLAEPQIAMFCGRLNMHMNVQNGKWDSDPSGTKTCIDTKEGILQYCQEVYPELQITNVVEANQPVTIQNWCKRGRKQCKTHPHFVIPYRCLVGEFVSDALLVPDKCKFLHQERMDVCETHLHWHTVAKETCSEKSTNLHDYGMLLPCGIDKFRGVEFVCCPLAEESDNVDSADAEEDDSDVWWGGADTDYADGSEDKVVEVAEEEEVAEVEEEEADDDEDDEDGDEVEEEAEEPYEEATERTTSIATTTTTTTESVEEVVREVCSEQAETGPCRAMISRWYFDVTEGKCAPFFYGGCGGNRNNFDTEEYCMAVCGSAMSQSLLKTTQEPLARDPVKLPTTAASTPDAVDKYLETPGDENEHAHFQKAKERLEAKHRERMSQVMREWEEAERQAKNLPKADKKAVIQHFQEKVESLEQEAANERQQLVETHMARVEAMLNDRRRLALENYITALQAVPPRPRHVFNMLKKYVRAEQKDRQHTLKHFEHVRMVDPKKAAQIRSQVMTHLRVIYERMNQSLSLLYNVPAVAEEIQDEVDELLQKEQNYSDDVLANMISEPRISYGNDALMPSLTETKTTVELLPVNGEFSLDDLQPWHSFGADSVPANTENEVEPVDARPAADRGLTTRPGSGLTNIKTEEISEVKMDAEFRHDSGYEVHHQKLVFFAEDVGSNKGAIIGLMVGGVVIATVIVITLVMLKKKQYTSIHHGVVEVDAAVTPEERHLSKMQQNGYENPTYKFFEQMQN

For `Cc1cc2nc3n(c(=O)c2cc1NC(=O)c1cc2cc(F)ccc2[nH]1)CCC3`, the negative logarithm of the IC50 (pIC50) against Cholinesterase was 5.76; on Acetylcholinesterase it was 5.87; in data set [1], 5.49.

With `Cc1cc2nc3n(c(=O)c2cc1NC(=O)c1cc2cc(Cl)ccc2[nH]1)CCC3`, the pIC50 on Cholinesterase is 5.33; against Acetylcholinesterase, 5.97; in data set [1] it was 5.29.

Regarding `O=C(Cc1cc2ccccc2[nH]1)Nc1ccc2nc3n(c(=O)c2c1)CCC3`, the pIC50 against Cholinesterase was 5.86; against Acetylcholinesterase it was 6.01; in data set [1], 5.79.

`O=C(Nc1ccc2nc3n(c(=O)c2c1)CCC3)c1cc2cc(F)ccc2[nH]1`: the inhibition in data set [2] was 61.8%. Also, the pIC50 is 6.12 on Cholinesterase, 6.11 against Acetylcholinesterase and 5.81 in data set [1].

Take `COc1ccc2[nH]c(C(=O)Nc3ccc4nc5n(c(=O)c4c3)CCC5)cc2c1`: in data set [2], the inhibition came out at 80%. Besides, the inhibition entry in data set [3] and in data set [4] was “Active” in each case. Moreover, the Activity entry in the data set on BV-2 and in the data set on PC-12 was “Non-Toxic” each time. The pIC50 is 6.82 against Cholinesterase, 6.92 against Acetylcholinesterase and 5.92 in data set [1].

Turning to `O=C(/C=C/c1cc2ccccc2[nH]1)Nc1ccc2nc3n(c(=O)c2c1)CCC3`, the values for the pIC50 (at Cholinesterase; on Acetylcholinesterase; in data set [1]) were 5.35, 5.78 and 5.51, respectively.

With `O=C(Nc1ccc2nc3n(c(=O)c2c1)CCC3)c1cc2ccccc2[nH]1`, the results for the pIC50 (against Cholinesterase; on Acetylcholinesterase; in data set [1]) were 6.05, 5.81 and 5.67, respectively.

`O=C(Nc1ccc2nc3n(c(=O)c2c1)CCC3)c1cc2cc(Cl)ccc2[nH]1`: the inhibition in data set [2] stood at 52.1%. Further, the pIC50 against Cholinesterase is 6.11; against Acetylcholinesterase, 6.59; in data set [1], 5.77.

For `COc1ccc2[nH]c(C(=O)Nc3cc4c(=O)n5c(nc4cc3C)CCC5)cc2c1`, the pIC50 is 5.28 against Cholinesterase, 5.68 against Acetylcholinesterase and 5.21 in data set [1].

On to `O=C(Nc1ccc2nc3n(c(=O)c2c1)CCC3)c1cc2ccccc2s1`, for which the negative-log IC50 (pIC50) on Cholinesterase is 5.72; at Acetylcholinesterase it was 5.60; in data set [1], 5.64.

In the case of `O=C(CCCc1cc2ccccc2[nH]1)Nc1ccc2nc3n(c(=O)c2c1)CCC3`, the pIC50 is 5.80 against Cholinesterase, 5.20 against Acetylcholinesterase and 5.28 in data set [1].

`O=C(Nc1ccc2nc3n(c(=O)c2c1)CCC3)c1cc2ccccc2o1`: the values for the pIC50 (at Cholinesterase; against Acetylcholinesterase; in data set [1]) were 5.73, 5.82 and 5.49, respectively.
